Laboratory results taken from patent publication US20190330224A1, “ACC INHIBITORS AND USES THEREOF” (Gilead Apollo, LLC, priority 2015, published 2019).
Converted amounts (≈) assume the structure as drawn.

Assays:
[1] = system: Blumeria graminis f sp. hordei; test: Foliar protection test, barley powdery mildew control; format: in vivo, Blumeria graminis f sp. hordei on Hordeum vulgare cv. Perry; details: 168 h, compound concentration 50 ppm, foliar spray, evaluated 7 days after inoculation, read-out: Barley Powdery Mildew Control at 50 ppm
Method: Compounds of the present invention were evaluated in a foliar protection test to determine the ability to control barley powdery mildew. Plants (Hordeum vulgare cv. Perry) were grown for 6 days in 2-inch square pots containing Metromix 200 medium amended with fertilizer. For propagation, plants were maintained in a growth chamber at conditions of 20 to 21° C., 16 hour light cycle, 400 uM of light, 70% humidity, and with sub-irrigation as needed. After inoculation with the pathogen of Blumeria graminis f sp. hordei, plants were kept at conditions of 20 to 22° C., 70% relative humidity, and 200 uM of light to facilitate infection and disease development. At 6 days after planting (1st true leaf fully expanded), the test compounds were dissolved in a solution of 5% acetone and 0.005% Tween 80 surfactant. An atomizer was used for applying the solution onto both sides of the leaves until thoroughly wetted. The amount of the compound applied to the leaves was typically 200, 100, 50, 10, or 2 ppm, but it may vary. At 24 hours after treatment, the plants were moved to a cooler chamber and inoculated by shaking well-colonized, untreated stock plants above the treated plants. This allowed producing a settling cloud of spores and resulting in uniform infection. Efficacy was evaluated in 7 days later by examining leaves for colonization and growth of mildew. Table 5 lists the results of barley powdery mildew control at a compound concentration of 50 ppm or 10 ppm. Compounds having an activity designated as “AA” provided a compound having >85% control of barley powdery mildew; compounds having an activity designated as “A” provided a compound having from 70% to 84% control of barley powdery mildew; compounds having an activity designated as “B” provided a compound having from 50 to 69% control of barley powdery mildew; compounds having an activity designated as “C” provided a compound having from 25 to 49% control of barley powdery mildew; and compounds having an activity designated as “D” provided a compound having <25% control of barley powdery mildew.

[2] = system: Phytophthora capsici (Pc); test: Growth inhibition assay of fungal pathogens, Pc; format: cell-based; details: 48 hours, read-out: Concentration at 90% Inhibition, Pc
Method: (§1) Compounds of the present invention were evaluated in a growth inhibition assay to determine the ability to control the growth of fungal pathogens, such as Botrtyis cinerea (Bc). Collectotrichum graminicola (Cg), Diplodia maydis (Dm), Fusarium moniliforme (Fm), Fusarium virguliforme (Fv), Phytophthora capsici (Pc), Rhizoctonia solani (Rs), and Septoria tritici (St). Compounds to be tested were dissolved in DMSO at 2.5 mg/ml to produce compound stock solutions (“stocks”). Stocks were diluted with DMSO by a five-fold dilution in a 96-well stock plate, and two sets of final concentrations of 50, 10, and 2 ppm or 2, 0.4, and 0.08 ppm were obtained in vitro. A set of positive controls was also prepared, with various concentrations of Soraphen (2, 0.4, and 0.08 ppm), Metalaxyl (1.1, 0.22, and 0.04 ppm), and Metconazole (2, 0.4, and 0.08 ppm or 0.2, 0.04, and 0.008 ppm) after the five-fold dilutions. Negative controls on each plate included 2% DMSO, water, and a blank (media+2% DMSO). Fungal spores were isolated from previously sub-cultured plates of Botrtyis cinerea (Bc), Collectotrichum graminicola (Cg), Diplodia maydis (Dm), Fusarium moniliforme (Fm), Fusarium virguliforme (Fv), Phytophthora capsici (Pc), and Septoria tritici (St). The isolated spores were diluted to individual concentrations with a 17% V8 liquid media. For Rhizoctonia solani (Rs) and Pythium irregulare, 1.5 mm mycelial plugs were used in place of spores and ¼ Potato Dextrose Broth (PDB) was used for dilution. The spore concentrations and plug sizes were based on growth curves generated at 48 hours for each pathogen. In a second 96-well plate, the spores or mycelial plugs, media, diluted compound solutions, and controls were combined. Once the compound was added, a true final concentration of compound in each well was measured by an OD600 reading, which adjusted for any compound precipitation that might have occurred in the well. Plate readings were repeated at both 24 and 48 hours. The blank negative control was used as a background subtraction. Additional visual ratings were performed at both 24 and 48 hours for checking on precipitation and confirming efficacy. Visual and OD600 ratings of the compounds at 48 hours were compared to the 2% DMSO negative control, and the percent of pathogen growth inhibition was determined based on those values.

C. krusei ATCC 6258 = test: Anti-Fungal Activity Assay (broth microtiter MIC), C. krusei; format: cell-based, Candida krusei; details: Pichia kudriavzevii, ATCC6258, 48 h, 3 replicates; MIC recorded at 48 h; read-out: MIC C. krusei ATCC 6258
Outline: (§2)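 Plate from frozen stock onto Sabouraud dextrose agar, 35° C overnight; swab colonies into RPMI 1640+MOPS; set density via standard curves; run CLSI M27-A3 broth microdilution; score MIC visually versus growth control at 48 h, soraphen additionally at 24 h.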

Rhizoctonia solani (Rs) = test: Growth inhibition assay of fungal pathogens, Rs; format: cell-based; details: 48 hours, read-out: Concentration at 90% Inhibition, Rs
Method: as §1

Septoria tritici (St) = test: Growth inhibition assay of fungal pathogens, St; format: cell-based; details: Zymoseptoria tritici; 48 hours; read-out: Concentration at 90% Inhibition, St
Method: as §1

[3] = system: Fusarium moniliforme (Fm); test: Growth inhibition assay of fungal pathogens, Fm; format: cell-based; details: Fusarium verticillioides; 48 hours; read-out: Concentration at 90% Inhibition, Fm
Method: as §1

[4] = system: Collectotrichum graminicola (Cg); test: Growth inhibition assay of fungal pathogens, Cg; format: cell-based; details: 48 hours; read-out: Concentration at 90% Inhibition, Cg
Method: as §1

[5] = system: Fusarium virguliforme (Fv); test: Growth inhibition assay of fungal pathogens, Fv; format: cell-based; details: 48 hours, read-out: Concentration at 90% Inhibition, Fv
Method: as §1

[6] = system: C. parapsilosis ATCC 22019; test: Anti-Fungal Activity Assay (broth microtiter MIC), C. parapsilosis; format: cell-based, Candida parapsilosis; details: Lodderomyces parapsilosis, ATCC22019, 48 h, 3 replicates; MIC recorded at 48 h; read-out: MIC C. parapsilosis ATCC 22019
Outline: as §2

C. albicans ATCC 90028 = test: Anti-Fungal Activity Assay (broth microtiter MIC), C. albicans; format: cell-based, Candida albicans; details: Candida albicans, ATCC90028, 48 h, 3 replicates; MIC recorded at 48 h; read-out: MIC C. albicans ATCC 90028
Outline: as §2

Fungal ACC2 = Fungal ACC2 (UniProt Q00955); details: read-out: Fungal ACC2 (IC50, in vitro ACC2 inhibition)
Sequence of Fungal ACC2 (Q00955 whole entry): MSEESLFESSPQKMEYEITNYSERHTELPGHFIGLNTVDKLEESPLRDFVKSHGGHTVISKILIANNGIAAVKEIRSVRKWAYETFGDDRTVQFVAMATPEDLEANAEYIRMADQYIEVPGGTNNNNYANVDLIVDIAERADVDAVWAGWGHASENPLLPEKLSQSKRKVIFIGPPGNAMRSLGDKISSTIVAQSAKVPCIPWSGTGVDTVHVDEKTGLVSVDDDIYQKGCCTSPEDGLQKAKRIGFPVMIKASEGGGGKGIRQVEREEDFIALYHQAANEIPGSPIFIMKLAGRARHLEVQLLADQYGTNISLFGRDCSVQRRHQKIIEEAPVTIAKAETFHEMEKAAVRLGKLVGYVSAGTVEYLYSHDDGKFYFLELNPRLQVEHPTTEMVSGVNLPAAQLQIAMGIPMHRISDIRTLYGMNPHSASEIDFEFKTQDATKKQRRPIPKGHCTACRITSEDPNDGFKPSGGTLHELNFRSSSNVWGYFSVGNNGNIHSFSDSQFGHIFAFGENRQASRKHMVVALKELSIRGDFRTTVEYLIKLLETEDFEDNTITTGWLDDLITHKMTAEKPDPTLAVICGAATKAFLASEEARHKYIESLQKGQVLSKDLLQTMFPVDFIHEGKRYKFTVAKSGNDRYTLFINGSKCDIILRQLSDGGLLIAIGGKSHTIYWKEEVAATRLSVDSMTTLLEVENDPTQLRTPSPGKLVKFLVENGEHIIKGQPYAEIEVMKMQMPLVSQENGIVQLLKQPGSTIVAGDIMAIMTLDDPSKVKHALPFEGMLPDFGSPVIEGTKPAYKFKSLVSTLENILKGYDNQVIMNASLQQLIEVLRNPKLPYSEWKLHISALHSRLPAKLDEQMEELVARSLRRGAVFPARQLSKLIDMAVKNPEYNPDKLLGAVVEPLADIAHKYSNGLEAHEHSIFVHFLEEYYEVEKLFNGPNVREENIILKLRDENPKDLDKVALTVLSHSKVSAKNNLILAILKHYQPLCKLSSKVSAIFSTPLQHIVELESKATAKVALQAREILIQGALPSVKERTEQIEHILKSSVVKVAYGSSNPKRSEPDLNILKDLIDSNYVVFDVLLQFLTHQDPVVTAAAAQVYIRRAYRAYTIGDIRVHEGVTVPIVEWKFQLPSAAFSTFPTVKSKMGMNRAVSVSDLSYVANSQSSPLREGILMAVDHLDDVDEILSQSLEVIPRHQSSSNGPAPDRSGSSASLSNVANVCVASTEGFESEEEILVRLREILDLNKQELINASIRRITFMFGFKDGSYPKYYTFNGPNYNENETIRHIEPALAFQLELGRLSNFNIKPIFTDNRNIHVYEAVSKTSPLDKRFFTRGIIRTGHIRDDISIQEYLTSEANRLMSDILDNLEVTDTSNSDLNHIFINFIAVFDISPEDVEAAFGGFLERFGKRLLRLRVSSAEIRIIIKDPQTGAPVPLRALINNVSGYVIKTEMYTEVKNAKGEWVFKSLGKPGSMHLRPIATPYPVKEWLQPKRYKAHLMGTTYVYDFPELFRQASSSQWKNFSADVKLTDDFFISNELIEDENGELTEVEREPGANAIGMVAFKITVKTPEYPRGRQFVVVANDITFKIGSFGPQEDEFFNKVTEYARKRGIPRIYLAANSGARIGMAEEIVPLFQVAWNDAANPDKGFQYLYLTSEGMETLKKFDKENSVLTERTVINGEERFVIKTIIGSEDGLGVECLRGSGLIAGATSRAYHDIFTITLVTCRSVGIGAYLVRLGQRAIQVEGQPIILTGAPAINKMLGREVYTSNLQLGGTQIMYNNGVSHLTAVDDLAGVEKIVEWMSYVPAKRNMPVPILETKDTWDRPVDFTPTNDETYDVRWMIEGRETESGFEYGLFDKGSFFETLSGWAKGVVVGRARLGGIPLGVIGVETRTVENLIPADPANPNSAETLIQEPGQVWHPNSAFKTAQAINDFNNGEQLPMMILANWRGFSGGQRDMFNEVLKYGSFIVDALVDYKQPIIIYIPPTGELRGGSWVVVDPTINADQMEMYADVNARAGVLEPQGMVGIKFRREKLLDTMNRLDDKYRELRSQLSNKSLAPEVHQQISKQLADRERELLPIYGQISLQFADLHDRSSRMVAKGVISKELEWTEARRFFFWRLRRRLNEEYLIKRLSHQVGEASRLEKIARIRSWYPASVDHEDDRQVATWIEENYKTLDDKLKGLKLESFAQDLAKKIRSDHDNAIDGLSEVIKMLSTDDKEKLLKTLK

Botrtyis cinerea (Bc) = test: Growth inhibition assay of fungal pathogens, Bc; format: cell-based; details: 48 hours; read-out: Concentration at 90% Inhibition, Bc
Method: as §1

Diplodia maydis (Dm) = test: Growth inhibition assay of fungal pathogens, Dm; format: cell-based; details: Stenocarpella maydis; 48 hours; read-out: Concentration at 90% Inhibition, Dm
Method: as §1

Human ACC2 = Human ACC2 (Homo sapiens, UniProt O00763); test: In vitro ACC2 inhibition assay (ADP-Glo), human ACC2; format: biochemical; details: 5 nM ACC2, 20 μM ATP, 20 μM acetyl-CoA
Sequence of Human ACC2 (O00763 whole entry): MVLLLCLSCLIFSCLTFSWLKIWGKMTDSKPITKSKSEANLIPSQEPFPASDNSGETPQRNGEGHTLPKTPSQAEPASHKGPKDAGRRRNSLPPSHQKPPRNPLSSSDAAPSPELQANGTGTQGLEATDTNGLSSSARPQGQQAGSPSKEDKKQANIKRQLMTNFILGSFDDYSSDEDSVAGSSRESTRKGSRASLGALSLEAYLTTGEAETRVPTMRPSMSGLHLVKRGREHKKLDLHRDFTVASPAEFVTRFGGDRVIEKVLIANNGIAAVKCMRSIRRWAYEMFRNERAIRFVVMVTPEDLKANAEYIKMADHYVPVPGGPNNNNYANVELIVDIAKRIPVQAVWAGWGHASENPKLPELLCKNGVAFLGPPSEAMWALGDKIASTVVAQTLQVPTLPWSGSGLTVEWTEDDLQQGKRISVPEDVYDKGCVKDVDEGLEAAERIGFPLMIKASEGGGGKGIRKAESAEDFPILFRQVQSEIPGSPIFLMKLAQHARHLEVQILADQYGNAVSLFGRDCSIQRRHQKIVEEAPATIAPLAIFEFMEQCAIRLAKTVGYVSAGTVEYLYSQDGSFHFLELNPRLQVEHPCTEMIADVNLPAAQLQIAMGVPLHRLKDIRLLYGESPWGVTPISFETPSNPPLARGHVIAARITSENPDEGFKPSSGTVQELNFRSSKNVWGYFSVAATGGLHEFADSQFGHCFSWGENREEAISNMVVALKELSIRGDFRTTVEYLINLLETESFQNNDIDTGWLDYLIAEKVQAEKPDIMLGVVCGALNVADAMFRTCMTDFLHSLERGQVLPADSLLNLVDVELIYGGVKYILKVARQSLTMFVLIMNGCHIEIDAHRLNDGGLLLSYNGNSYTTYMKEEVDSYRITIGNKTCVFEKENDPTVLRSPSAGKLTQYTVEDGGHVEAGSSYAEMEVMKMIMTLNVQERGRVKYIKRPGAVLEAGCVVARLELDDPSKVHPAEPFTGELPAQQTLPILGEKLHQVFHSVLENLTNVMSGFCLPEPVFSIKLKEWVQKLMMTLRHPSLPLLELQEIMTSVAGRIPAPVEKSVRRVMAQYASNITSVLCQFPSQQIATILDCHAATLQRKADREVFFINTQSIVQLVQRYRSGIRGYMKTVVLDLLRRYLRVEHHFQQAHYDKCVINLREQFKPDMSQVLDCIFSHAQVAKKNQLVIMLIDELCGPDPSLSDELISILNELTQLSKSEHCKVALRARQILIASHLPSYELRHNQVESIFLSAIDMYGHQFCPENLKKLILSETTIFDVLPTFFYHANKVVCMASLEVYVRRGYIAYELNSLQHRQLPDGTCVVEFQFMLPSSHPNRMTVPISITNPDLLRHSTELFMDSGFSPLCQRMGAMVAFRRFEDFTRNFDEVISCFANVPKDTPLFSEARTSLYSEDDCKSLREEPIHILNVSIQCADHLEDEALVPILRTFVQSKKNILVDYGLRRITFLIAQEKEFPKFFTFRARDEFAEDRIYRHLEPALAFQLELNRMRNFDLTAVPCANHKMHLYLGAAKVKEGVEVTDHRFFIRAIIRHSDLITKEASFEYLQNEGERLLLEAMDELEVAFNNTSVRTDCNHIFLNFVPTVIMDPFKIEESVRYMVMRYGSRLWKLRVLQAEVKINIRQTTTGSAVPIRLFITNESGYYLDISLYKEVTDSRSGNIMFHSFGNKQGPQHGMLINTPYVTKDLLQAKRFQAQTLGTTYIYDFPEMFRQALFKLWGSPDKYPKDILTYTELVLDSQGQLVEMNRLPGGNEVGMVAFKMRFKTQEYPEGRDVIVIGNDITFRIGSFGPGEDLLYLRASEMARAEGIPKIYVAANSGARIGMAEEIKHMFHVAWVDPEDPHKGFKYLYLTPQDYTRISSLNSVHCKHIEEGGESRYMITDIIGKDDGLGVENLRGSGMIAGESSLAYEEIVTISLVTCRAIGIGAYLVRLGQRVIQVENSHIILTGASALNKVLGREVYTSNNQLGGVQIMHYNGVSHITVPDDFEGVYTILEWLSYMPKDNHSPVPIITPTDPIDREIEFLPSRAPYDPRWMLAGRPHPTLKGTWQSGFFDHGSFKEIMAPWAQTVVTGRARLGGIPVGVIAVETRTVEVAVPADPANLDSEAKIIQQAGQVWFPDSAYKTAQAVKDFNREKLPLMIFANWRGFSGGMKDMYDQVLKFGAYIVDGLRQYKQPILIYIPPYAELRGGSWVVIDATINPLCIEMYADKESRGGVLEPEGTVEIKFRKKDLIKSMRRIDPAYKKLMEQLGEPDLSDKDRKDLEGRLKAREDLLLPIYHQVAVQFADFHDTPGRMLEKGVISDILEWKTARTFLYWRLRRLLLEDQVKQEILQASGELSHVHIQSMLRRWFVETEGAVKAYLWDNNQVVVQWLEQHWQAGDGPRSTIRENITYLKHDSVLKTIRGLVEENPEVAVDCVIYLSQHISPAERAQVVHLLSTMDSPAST

[7] = compound concentration 10 ppm, foliar spray, evaluated 7 days after inoculation

Row | Compound | pest or weed control at 50 ppm [1] | IC90 [2] | MIC (C. krusei ATCC 6258) | IC90 (Rhizoctonia solani (Rs)) | IC90 (Septoria tritici (St)) | IC90 [3] | IC90 [4] | IC90 [5] | MIC [6] | MIC (C. albicans ATCC 90028) | IC50 (Fungal ACC2) | IC90 (Botrtyis cinerea (Bc)) | IC90 (Diplodia maydis (Dm)) | IC50 (Human ACC2) | Barley Powdery Mildew Control at 10 ppm [7]
1 | COCCO[C@@H](Cn1c(=O)n([C@H]2CCCN(C(C)C)C2=O)c(=O)c2c(C)c(-n3nccn3)sc21)c1cc(F)ccc1OC [Compound I-78, 1-((R)-2-(5-fluoro-2-methoxyphenyl)-2-(2-methoxy-ethoxy)ethyl)-3-((S)-1-isopropyl-2-oxopiperidin-3-yl)-5-methyl-6-(2H-1,2,3-triazol-2-yl)thieno[2,3-d]pyrimidine-2,4(1H,3H)-dione] | 25 to 49% | > 50 µg/mL | 2.1 to 4 µg/mL (≈ 3.42 to 6.51 µM) | > 50 µg/mL | > 50 µg/mL | 2 µg/mL (≈ 3.25 µM) | > 50 µg/mL | > 50 µg/mL | 2.1 to 4 µg/mL (≈ 3.42 to 6.51 µM) | 2.1 to 4 µg/mL (≈ 3.42 to 6.51 µM) | 2 to 10 nM | 2 µg/mL (≈ 3.25 µM) | 10 µg/mL (≈ 16.3 µM) | 10 to 100 nM | –
2 | COCCO[C@@H](Cn1c(=O)n([C@@H]2CCCN(C(C)C)C2=O)c(=O)c2c(C)c(-n3nccn3)sc21)c1cc(F)ccc1OC [Compound I-79, 1-((R)-2-(5-fluoro-2-methoxyphenyl)-2-(2-methoxy-ethoxy)ethyl)-3-((R)-1-isopropyl-2-oxopiperidin-3-yl)-5-methyl-6-(2H-1,2,3-triazol-2-yl)thieno[2,3-d]pyrimidine-2,4(1H,3H)-dione] | 50 to 69% | > 50 µg/mL | 1.1 to 2 µg/mL (≈ 1.79 to 3.25 µM) | > 50 µg/mL | > 50 µg/mL | 10 µg/mL (≈ 16.3 µM) | > 50 µg/mL | > 50 µg/mL | 0.25 to 1 µg/mL (≈ 0.407 to 1.63 µM) | 1.1 to 2 µg/mL (≈ 1.79 to 3.25 µM) | 2 to 10 nM | > 50 µg/mL | 10 µg/mL (≈ 16.3 µM) | 100 to 1000 nM | –
3 | COc1ccc(F)cc1[C@H](Cn1c(=O)n([C@H]2CCN(C)C2=O)c(=O)c2c(C)c(-n3nccn3)sc21)OCCC#N [Compound I-108, 3-((R)-1-(5-fluoro-2-methoxyphenyl)-2-(5-methyl-3-((S)-1-methyl-2-oxopyrrolidin-3-yl)-2,4-dioxo-6-(2H-1,2,3-triazol-2-yl)-3,4-dihydro-thieno[2,3-d]pyrimidin-1 (2H)-yl)ethoxy)propanenitrile] | – | > 50 µg/mL | 2.1 to 4 µg/mL (≈ 3.7 to 7.05 µM) | 2 µg/mL (≈ 3.52 µM) | > 50 µg/mL | 0.08 µg/mL (≈ 0.141 µM) | 10 µg/mL (≈ 17.6 µM) | 2 µg/mL (≈ 3.52 µM) | 2.1 to 4 µg/mL (≈ 3.7 to 7.05 µM) | 2.1 to 4 µg/mL (≈ 3.7 to 7.05 µM) | 0.7 to 2 nM | 0.4 µg/mL (≈ 0.705 µM) | 10 µg/mL (≈ 17.6 µM) | 2 to 10 nM | AA (provided a compound having >85% control of barley powdery mildew)
4 | COc1ccc(F)cc1[C@H](Cn1c(=O)n([C@@H]2CCN(C)C2=O)c(=O)c2c(C)c(-n3nccn3)sc21)OCCC#N [Compound I-109, 3-((R)-1-(5-fluoro-2-methoxyphenyl)-2-(5-methyl-3-((R)-1-methyl-2-oxopyrrolidin-3-yl)-2,4-dioxo-6-(2H-1,2,3-triazol-2-yl)-3,4-dihydro-thieno[2,3-d]pyrimidin-1(2H)-yl)ethoxy)propanenitrile] | – | > 50 µg/mL | 2.1 to 4 µg/mL (≈ 3.7 to 7.05 µM) | 2 µg/mL (≈ 3.52 µM) | > 50 µg/mL | 0.4 µg/mL (≈ 0.705 µM) | 2 µg/mL (≈ 3.52 µM) | 2 µg/mL (≈ 3.52 µM) | 2.1 to 4 µg/mL (≈ 3.7 to 7.05 µM) | 2.1 to 4 µg/mL (≈ 3.7 to 7.05 µM) | 0.7 to 2 nM | 0.4 µg/mL (≈ 0.705 µM) | 2 µg/mL (≈ 3.52 µM) | 2 to 10 nM | A (provided a compound having from 70% to 84% control of barley powdery mildew)
5 | COc1ccc(F)cc1[C@@H](O)Cn1c(=O)n([C@H]2CCN(C)C2=O)c(=O)c2c(C)c(-n3nccn3)sc21 [Compound I-164, 1-((R)-2-(5-fluoro-2-methoxyphenyl)-2-hydroxyethyl)-5-methyl-3-((S)-1-methyl-2-oxopyrrolidin-3-yl)-6-(2H-1,2,3-triazol-2-yl)thieno[2,3-d]pyrimidine-2,4(1H,3H)-dione] | – | > 50 µg/mL | 1.1 to 2 µg/mL (≈ 2.14 to 3.89 µM) | 0.4 µg/mL (≈ 0.777 µM) | > 50 µg/mL | 0.4 µg/mL (≈ 0.777 µM) | 10 µg/mL (≈ 19.4 µM) | 2 µg/mL (≈ 3.89 µM) | 2.1 to 4 µg/mL (≈ 4.08 to 7.77 µM) | 2.1 to 4 µg/mL (≈ 4.08 to 7.77 µM) | 0.7 to 2 nM | 2 µg/mL (≈ 3.89 µM) | > 50 µg/mL | 10 to 100 nM | B (provided a compound having from 50 to 69% control of barley powdery mildew)
6 | COc1ccc(F)cc1[C@@H](O)Cn1c(=O)n([C@@H]2CCN(C)C2=O)c(=O)c2c(C)c(-n3nccn3)sc21 [Compound I-166, 1-((R)-2-(5-fluoro-2-methoxyphenyl)-2-hydroxyethyl)-5-methyl-3-((R)-1-methyl-2-oxopyrrolidin-3-yl)-6-(2H-1,2,3-triazol-2-yl)thieno[2,3-d]pyrimidine-2,4(1H,3H)-dione] | – | > 50 µg/mL | – | 2 µg/mL (≈ 3.89 µM) | > 50 µg/mL | 2 µg/mL (≈ 3.89 µM) | 10 µg/mL (≈ 19.4 µM) | 10 µg/mL (≈ 19.4 µM) | – | – | 0.7 to 2 nM | 2 µg/mL (≈ 3.89 µM) | 10 µg/mL (≈ 19.4 µM) | 2 to 10 nM | B (provided a compound having from 50 to 69% control of barley powdery mildew)
